Assays:
Human caspase-8 = assay: ELISA caspase 8 production in HCT116; assay type: cell-based
Method: The production of caspase 8 was determined using various concentrations of 7f in a concertation-dependent manner. There was a gradual increase in the caspase 8 production level using the following concentrations (0.156, 0.312, 0.625, 1.25, 2.5, 5, and 10 ng/ml). The maximal increase in caspase 8 production was achieved by using 7f concentrations between 5 and 10 ng/ml (Fig. 8).
The quantitative measurements of Human caspases-3, -8, and -9 concentrations in HCT116 cell culture lysates were performed using ELISA assay. The protocols were followed up based on the manuscript instructions described in the following kits; Invitrogen human Caspase-3 Elisa Kit, Catalog # KHO1091, DRG® human Caspase-8 ELISA Kit, Catalog # (EIA-4863), and DRG® human Caspase-9 ELISA Kit, Catalog # (EIA-4860)respectively. In short, the procedure described in the above protocols was as instructed; all reagents, standards, and samples were prepared. Then, 100 μL of standard or samples were added to each well and incubated at room temperature for 2 h. Afterward, 100 μL of the prepared antibody (anti-rabbit-IgG-HRP) was added to all wells for 1 h at room temperature. […] All readings were measured immediately at a wavelength of 450 nm. From the readings of the standards, a standard curve was plotted using curve fitting software. Then, the concentrations for unknown samples and controls were measured from the standard curve.

Bax = assay: RT-PCR gene expression, Bax, in HCT116; assay type: cell-based, human; details: HCT116, 6.76 µg/mL, 48 h, relative to untreated control
Method: (§1) In this current research, relative gene expression related to apoptosis should be studied well because they were very interesting to understand the effect of our selected compound on this important biological process. HCT116 cells were treated with chalcone 7f (6.76µg/mL) for 48 h, and then subjected to qPCR analysis regarding control samples. The effect of chalcone 7f on the expression level of (Bax, p53, Bcl2, and CDK4) genes was assessed using the qPCR technique. […] As indicated in this schematic diagram, the expression of apoptotic genes (Bax and P53) was enhanced by the effect of chalcone 7f to reach (3.662, and 5.435) respectively, relative to the control.
(§2) Total RNA was extracted from the compound 7f-treated HCT116 cells and the untreated cells using the RNA Purification Kit GeneJET (Thermo scientific, ON, Canada) 0.1 µg of the extracted RNA was reverse transcribed into complementary DNA (cDNA) using High-Capacity cDNA Reverse Transcription Kit (Thermo Scientific, ON, Canada). qPCR was done using Brilliant SYBR Green qPCR master mix (Applied Biosystems, San Francisco, CA, USA) in One Step Plus Real-Time PCR System (Applied Biosystems, San Francisco, CA, USA). […] The relative gene expression was determined using the 2^−ΔΔCt equation after normalization to the expression of β-actin (housekeeping gene) (Qiagen, CA, USA)(10 pmol/µL)[85], [86]. […]

Human caspase-3 = assay: ELISA caspase 3 production in HCT116; assay type: cell-based; details: HCT116, 7f at its IC50 value
Method: Apoptosis is known and identified by specific characterizations in which the activation of caspases plays an important role. In apoptotic pathways, mechanisms of (activation/inactivation) of these proteins are not fully understood. The significance of understanding the mechanistic machinery that controls programmed cell death, being initiated by various chemotherapeutic agents is very critical and attracts the attention of researchers in this area. In this assay, cells were incubated in the absence or presence of 7f with varying concentrations (39, 78, 156, 313, 625, 1250, and 2500 ng/ml), inducing a concentration-dependent increase in caspase3 production in HCT116. […] A concentration of 7f was used at its IC50 value and compared directly to the control. […] However, there was only 103.5 pg/ml induced by control cells. It was interesting to note that chalcone 7f stimulated the production of caspase 3 protein in HCT116 cells 4.8-fold compared to control as outlined in Fig. 7.
The quantitative measurements of Human caspases-3, -8, and -9 concentrations in HCT116 cell culture lysates were performed using ELISA assay. […] All readings were measured immediately at a wavelength of 450 nm. From the readings of the standards, a standard curve was plotted using curve fitting software. Then, the concentrations for unknown samples and controls were measured from the standard curve.

p53 = assay: RT-PCR gene expression, p53, in HCT116; assay type: cell-based, human; details: HCT116, 6.76 µg/mL, 48 h, relative to untreated control
Method: as §1, §2

Compound: N#C/C(=C\c1cn(-c2ccccc2)nc1-c1ccc([N+](=O)[O-])cc1)C(=O)c1c[nH]c2ccccc12 [Compound 7f, (E)-2-(1H-Indole-3-carbonyl)-3-(3-(4-nitrophenyl)-1-phenyl-1H-pyrazol-4-yl)acrylonitrile]
- caspase 8 production, fold increase (Human caspase-8; HCT116 treated with 7f versus untreated): 3.788 fold
- caspase 8 production level (Human caspase-8; HCT116 treated with 7f, untreated 0.2914 ng/ml): 1.104 ng/mL
- RT-PCR fold change Bax (Bax): 3.662 fold
- caspase 3 production, fold compared to control (Human caspase-3): 4.8 fold
- caspase 3 protein production (Human caspase-3; control cells 103.5 pg/ml): 504.1 pg/mL
- RT-PCR fold change p53 (p53): 5.435 fold
